Data reported in ChEMBL document CHEMBL1152168 (Bioorg Med Chem Lett, 2008).
≈ marks a conversion by molar mass, not a printed value.

Legend:
[1] = Inhibition of MEK-mediated ERK phosphorylation in PDGF-stimulated mouse K-Balb cells treated as single oral dose preincubated for 24 hrs before PDGF challenge by whole cell assay
[2] = Inhibition of MEK-mediated phosphorylation of myelin basic protein by kinase cascade assay
[3] = Inhibition of MEK-mediated ERK phosphorylation in PDGF-stimulated mouse K-Balb cells treated as single oral dose preincubated for 1 hr before PDGF challenge by whole cell assay
Mus musculus [4] = test: Inhibition of MEK-mediated ERK phosphorylation in mouse C26 cells xenografted mouse at 50 mg/kg, po after 1 day; assay type: functional; details: C26, 24 h
[5] = Antitumor activity in mouse C26 cells xenografted mouse assessed as tumor growth delay at 1.6 mg/kg/treatment, po qd after 14 days relative to control; assay type: functional
[6] = Antitumor activity in mouse C26 cells xenografted mouse assessed as minimal effective dose; assay type: functional; details: read-out: MED
[7] = Distribution coefficient, log D of the compound; assay type: physicochemical; details: octanol/water
[8] = Antitumor activity in mouse C26 cells xenografted mouse assessed as 50% reduction in tumor mass at 1.6 mg/kg/treatment, po qd after 14 days; assay type: functional; parameters: scale not given: the % may be the effect or the level left
[9] = Metabolic stability in human liver microsomes; assay type: ADME, Microsome
[10] = Toxicity in mouse assessed as maximum tolerated dose; assay type: organism-based; details: in vivo
[11] = Antitumor activity in mouse C26 cells xenografted mouse assessed as tumor growth delay at 25 mg/kg/treatment, po qd after 14 days relative to control; assay type: functional
[12] = Antitumor activity in mouse C26 cells xenografted mouse assessed as 100% reduction in tumor mass at 25 mg/kg/treatment, po qd after 14 days; assay type: functional; parameters: scale not given: the % may be the effect or the level left
[13] = Aqueous solubility in phosphate buffer at pH 6.5; assay type: physicochemical
Mus musculus [14] = test: Inhibition of MEK-mediated ERK phosphorylation in mouse C26 cells xenografted mouse at 12.5 mg/kg, po after 1 day; assay type: functional; details: C26, 24 h
[15] = Permeability across human Caco-2 cells; assay type: ADME, cell-based; details: read-out: permeability
[16] = Antitumor activity in mouse C26 cells xenografted mouse assessed as 50% reduction in tumor mass at 25 mg/kg/treatment, po qd after 14 days; assay type: functional; parameters: scale not given: the % may be the effect or the level left
[17] = Metabolic stability in human hepatocytes; assay type: ADME, cell-based, Liver, Hepatocyte
[18] = Antitumor activity in mouse C26 cells xenografted mouse assessed as 100% reduction in tumor mass at 1.6 mg/kg/treatment, po qd after 14 days; assay type: functional; parameters: scale not given: the % may be the effect or the level left
[19] = Inhibition of MEK-stimulated ERK phosphorylation in PDGF-stimulated mouse C26 cells treated as single oral dose before PDGF challenge by whole cell assay; assay type: cell-based
[20] = Antitumor activity in mouse C26 cells xenografted mouse assessed as 100% reduction in tumor mass at 300 mg/kg/treatment, po dosed thrice a day after 14 days; assay type: functional; parameters: scale not given: the % may be the effect or the level left
[21] = Antitumor activity in mouse C26 cells xenografted mouse assessed as 50% reduction in tumor mass at 75 mg/kg/treatment, po dosed thrice a day after 14 days; assay type: functional; parameters: scale not given: the % may be the effect or the level left
[22] = Antitumor activity in mouse C26 cells xenografted mouse assessed as tumor growth delay at 75 mg/kg/treatment, po dosed thrice a day after 14 days relative to control; assay type: functional
[23] = Antitumor activity in mouse C26 cells xenografted mouse assessed as tumor growth delay at 300 mg/kg/treatment, po dosed thrice a day after 14 days relative to control; assay type: functional
[24] = Antitumor activity in mouse C26 cells xenografted mouse assessed as 50% reduction in tumor mass at 300 mg/kg/treatment, po dosed thrice a day after 14 days; assay type: functional; parameters: scale not given: the % may be the effect or the level left
[25] = Antitumor activity in mouse C26 cells xenografted mouse assessed as 100% reduction in tumor mass at 75 mg/kg/treatment, po dosed thrice a day after 14 days; assay type: functional; parameters: scale not given: the % may be the effect or the level left
Mus musculus [26] = test: Inhibition of MEK-mediated ERK phosphorylation in mouse C26 cells xenografted mouse at 100 mg/kg, po after 1 day; assay type: functional; details: C26, 24 h

Structure (SMILES) | IC50 [1] | IC50 [2] | IC50 [3] | further results
Cc1cc(I)ccc1Nc1c(C(=O)NOCC2CCCC2)cc(Br)c(F)c1F | 661 nM | 23 nM | 119 nM | –
CCONC(=O)c1ccc(F)c(F)c1Nc1ccc(I)cc1C | 47 nM | 20 nM | 4.18 nM | –
Cc1cc(I)ccc1Nc1c(C(=O)NOCC2CC2)cc(Br)c(F)c1F | 113 nM | 7.8 nM | 26.4 nM | –
O=C(NOC[C@H](O)CO)c1ccc(F)c(F)c1Nc1ccc(I)cc1F [MIRDAMETINIB] | – | – | – | inhibition in vivo at 50 mg/kg (Mus musculus [4]): 84%; Activity [5]: 7.7 days; minimal effective dose [6]: 1.6 mg/kg; logD [7]: 4.6; Activity [8]: 0%; half-life [9]: > 1.67 h; MTD [10]: 25 mg/kg; Activity [11]: 15.4 days; Activity [12]: 70%; solubility [13]: 190 µg/mL (≈ 394 µM); inhibition in vivo at 12.5 mg/kg (Mus musculus [14]): 59%; Papp [15]: 72.7 ×10⁻⁶ cm/s; Activity [16]: 30%; half-life [17]: 6.17 h; Activity [18]: 20%
O=C(NOCC(O)CO)c1ccc(F)c(F)c1Nc1ccc(I)cc1Cl (racemic) | – | – | – | IC50 [19]: 19 nM
O=C(NO)c1ccc(F)cc1Nc1ccc(I)cc1Cl | 645 nM | 2.8 nM | 1.59 nM | –
CONC(=O)c1ccc(F)cc1Nc1ccc(I)cc1C | 50 nM | 26 nM | 11.8 nM | –
CCCONC(=O)c1ccc(F)c(F)c1Nc1ccc(I)cc1C | 136 nM | 18 nM | 4.42 nM | –
O=C(NOCC1CC1)c1ccc(F)c(F)c1Nc1ccc(I)cc1F | – | – | – | IC50 [19]: 1 nM; solubility [13]: < 1 µg/mL
O=C(NOCCO)c1ccc(F)c(F)c1Nc1ccc(I)cc1Cl | – | – | – | IC50 [19]: 3.5 nM; solubility [13]: < 1 µg/mL
Cc1cc(I)ccc1Nc1c(C(=O)NOCC2CC2)ccc(F)c1F | 172 nM | 7 nM | 6.48 nM | –
Cc1cc(I)ccc1Nc1c(C(=O)NOC(C)C)ccc(F)c1F | 232 nM | 35 nM | 8.18 nM | –
O=C(O)c1ccccc1Nc1ccccc1I | – | > 10000 nM | – | –
O=C(NOCC(O)CO)c1ccc(F)c(F)c1Nc1ccc(I)cc1F (racemic) | – | – | – | solubility [13]: 147 µg/mL (≈ 305 µM)
Cc1cc(I)ccc1Nc1c(C(=O)O)ccc(F)c1F | – | 5.8 nM | – | –
O=C(NOC[C@@H](O)CO)c1ccc(F)c(F)c1Nc1ccc(I)cc1F | – | – | – | solubility [13]: 255 µg/mL (≈ 529 µM)

The next lines start with results.

IC50 [1] | IC50 [2] | IC50 [3] | Structure (SMILES) | further results
1780 nM | 48 nM | 1140 nM | Cc1cc(I)ccc1Nc1c(C(=O)NOCC2CCCCC2)cc(Br)c(F)c1F | –
– | 15 nM | – | Cc1cc(I)ccc1Nc1cc(F)ccc1C(=O)O | –
35.4 nM | 2.3 nM | 2.45 nM | O=C(NOCC1CC1)c1ccc(F)c(F)c1Nc1ccc(I)cc1Cl [CI-1040] | Activity [20]: 70%; Activity [21]: 20%; Activity [22]: 10.8 days; logD [7]: > 5; Activity [23]: 12.7 days; IC50 [19]: 35 nM; half-life [9]: 0.192 h; Activity [24]: 30%; Activity [25]: 10%; Papp [15]: 16.2 ×10⁻⁶ cm/s; inhibition in vivo at 100 mg/kg (Mus musculus [26]): 14%; half-life [17]: 1.67 h
– | 166 nM | – | Cc1cc(I)ccc1Nc1ccc(F)cc1C(=O)O | –
84.6 nM | 13 nM | 54.9 nM | O=C(NOCC1CC1)c1ccc(F)cc1Nc1ccc(I)cc1Cl | –
– | 518 nM | – | Cc1cc(I)ccc1Nc1cccc(F)c1C(=O)O | –
– | 554 nM | – | Cc1cc(I)ccc1Nc1cc(Cl)ccc1C(=O)O | –
– | 3050 nM | – | O=C(O)c1ccccc1Nc1ccc(I)cc1 | –
326 nM | 10 nM | 75.8 nM | Cc1cc(I)ccc1Nc1c(C(=O)NOCC2CCC2)cc(Br)c(F)c1F | –
624 nM | 7.96 nM | 3.55 nM | Cc1cc(I)ccc1Nc1cc(F)ccc1C(=O)NO | –
– | 390 nM | – | Cc1cc(I)ccc1Nc1ccccc1C(=O)O | –
– | > 10000 nM | – | O=C(O)c1ccccc1Nc1cccc(I)c1 | –
– | 6.8 nM | – | Cc1cc(I)ccc1Nc1c(C(=O)O)cc(F)c(F)c1F | –
257 nM | 27 nM | 23.5 nM | Cc1cc(I)ccc1Nc1cc(F)ccc1C(=O)NOCC1CC1 | –
